Results: paper PMC7321408, “One-Pot Multicomponent Synthesis and Bioevaluation of Tetrahydroquinoline Derivatives as Potential Antioxidants, α-Amylase Enzyme Inhibitors, Anti-Cancerous and Anti-Inflammatory Agents” (Molecules, 2020)
Converted amounts (≈) assume the structure as drawn. “And” between values parts separate entries of the source, which are not always exact repeats. Equal values may be shown once. Read-outs that look alike come from different tables or passages of the source.

Experiments:
[1] = target: α-amylase enzyme; test: α-Amylase enzyme inhibitory assay; type: biochemical
Experimental: An in vitro α-amylase enzyme inhibitory assay was performed by the standard protocol. Four milligrams per 1 mL of sample was prepared in DMSO. In each well of a 96-well plate, synthetic compounds were added to a final concentration of 200 µg/mL. To this, 15 μL phosphate buffer, […] α-amylase enzyme and 40 μL starch solution were added stepwise. The microplate was incubated at 50 °C for 30 min. […] The formula used to calculate the percent enzyme inhibition is:% Enzyme inhibition = [(As − An) ÷ (Ab − An] × 100
As = sample’s absorbance; An = negative’s absorbance; Ab = blank’s absorbance

[2] = DPPH free radical scavenging assay; settings: mean ± SEM, n = 3; for IC50 (DPPH radical scavenging): concentration to scavenge 50% of the DPPH radicals
Experimental: The % free radical scavenging activity (%FRSA) of the synthetic compounds was evaluated by the discoloration of an unstable DPPH reagent to the stable yellow-colored 2,2-diphenyl-1-picrylhydrazine molecule by accepting one electron from a donor antioxidant; the mechanism is shown in Scheme 2.
The % FRSA (free radical scavenging activity) of the synthetic compounds was determined by using the method of Tai et al. with slight modifications. The antioxidant potential was determined by detecting the capacity of the synthetic compounds to quench the DPPH free radicals. The synthetic compounds were taken in a 96-well plate at three-fold concentrations of 200 µg/mL, 66.6 µg/mL, 22.2 µg/mL and 7.4 µg/mL. DPPH free radicals were added to entire wells to make up the volume up to 200 µL. DMSO and ascorbic acid were taken as negative and positive controls, respectively. The absorbance was taken at 630nm using a microplate reader (ELx800 BioTek). The percentage of scavenging activity was calculated by the given formula:% scavenging activity = (1 − Abs/Abc) × 100
Abs = sample’s absorbance; Abc = control’s absorbance.

[3] = tested on: NO generated by LPS-induced macrophages; test: Nitric oxide assay (Griess) in LPS-induced macrophages; type: cell-based, murine; settings: Mus musculus, Macrophage, 18 h, LPS 1 µg/mL, read-out: % NO Production (Mean ± SEM)
Experimental: A Griess reagent, a spectrophotometric determination of nitrite level, was carried out to measure the nitrite level in the conditioned medium of macrophages treated with lipopolysaccharide (LPS). Sodium nitrite (NaNO2) was used as a standard compound for the standard curve (Figure 8). The NO concentrations were obtained using the standard curve equation: y = 0.0083x + 0.0017, R^2 = 0.9999, where y is the absorbance at 540 nm and x is the NO concentration in µM. The inhibitory activity of the tested compounds towards NO generated by LPS-induced macrophages was obtained from the calculated value of x.
The anti-inflammatory effect of the synthesized compounds in murine macrophages was evaluated by using the Griess reaction method, described previously. In brief, 1 × 10^6 were plated in a 96-well plate and incubated in a 5% CO2 incubator at 37 °C for 24 h, pre-treated with different concentrations (100 µM, 50 µM, 10 µM and 1 µM) of synthetic compounds for another 2 h and challenged with LPS (1 µg/mL) for an additional 18 h. Equal volumes of Griess reagent (1% sulphanilamide in 50% phosphoric acid and 0.1% naphthyl ethylenediamine dihydrochloride in distilled water and vortexed) and culture medium were mixed and the absorbance was taken at 540 nm. Lipopolysaccharide (LPS) was taken as a blank and piroxicam was taken as a positive control. A t-test was applied to determine the significance of the results.

[4] = tested on: brine shrimp nauplii; test: Brine shrimp lethality bioassay; type: in vivo; settings: 24 h, n = 3
Experimental: Brine shrimp eggs were hatched in a shallow rectangular plastic dish and filled with artificial seawater, which was prepared with a commercial salt mixture. In a 96-well plate, 150 µL of artificial seawater was added and 10 nauplii were added into this. Test compounds (400, 200, 100 and 50 µg/mL) were added into each well and the final volume was made up by adding the artificial seawater. The well plate was left uncovered under a lamp. The number of surviving shrimps were counted and recorded after 24 h. The test was repeated in triplicate. […] The percentage mortality (%M) was also calculated by dividing the number of dead nauplii by the total number and then multiplied by 100.

[5] = MTT cytotoxicity against raw macrophages; type: cell-based, albino rats; settings: albino, rat; for viability at 24 h, 1 µM / viability at 24 h, 10 µM / viability at 24 h, 50 µM / viability at 24 h, 100 µM: peritoneal macrophages (raw macrophages), raw macrophages, MTT, read-out: % Cell Viability; for IC50 at 24 h: primary peritoneal macrophages, mean ± SEM, n = 3
Experimental: The % cell viability of the synthetic library was evaluated in vitro by measuring the mitochondrial dehydrogenase activity (MTT test) on raw macrophages.
The cytotoxic potential was assessed by using an MTT 3-(4,5-dimethyl thiazole-2-yl)-2,5- diphenyl tetrazolium bromide assay. Briefly, macrophages were extracted from the peritoneal cavity of albino rats and plated at a density of 1 × 10^6 per well in a 96-well plate and incubated in a 5% CO2 incubator at 37 °C for 24 h. The cells were treated with various concentrations of the test compounds (100 µM, 50 µM, 10 µM and 1 µM) or vehicle alone. The test compounds were first dissolved in DMSO to make a 100 mM stock solution and then further dilutions were made from this stock solution. After 24 h of incubation, 20 µL of MTT (1 mg/mL in normal saline) was added into each well and incubated under the same conditions for 2 h. Mitochondrial succinate dehydrogenase converted MTT in live cells into purple formazan crystals. The formazan crystals were then solubilized in 100 µL DMSO, and the absorbance was measured at 570 nm. The % cell viability was calculated by the following formula; % cell viability = (abssample − absblank)/(abscontrol − absblank) × 100

[6] = tested on: Hep-2C cells; test: MTT assay against Hep-2C cells; type: cell-based, Human; settings: Homo sapiens, Hep2C, read-out: IC50 (Mean ± SEM) Hep-2C Cells
Experimental: Hep-2C cell line experiments were performed in the Immunology Lab of the National Institute of Health (NIH), Islamabad, Pakistan. Human cervix carcinoma cells Hep-2C (ATCC HB-8065) were cultured in Dulbecco’s modified Eagle’s medium (DMEM), comprising 10% fetal calf serum (10% FCS) and supplemented with 2 mM L-glutamine, 100 U/mL penicillin, 100 µg/mL streptomycin and 1 mM Na pyruvate, at 37 °C in a humidified 5% CO2 incubator.
The tetrazolium dye 3-(4, 5-dimethyl thiazolyl-2)-2, 5-diphenyltetrazolium bromide (MTT) was used to assess the cytotoxic potential of the test compounds. In living cells, MTT is reduced into its insoluble purple product formazan, which is measured spectrophotometrically.
Hep-2C cells, in a density of 1 × 10^6 (> 90% cell viability), were cultured in a 96-well plate and treated with different concentrations of the test compounds for 24, 48 and 72 h. Ten microliters of MTT (1 mg per mL) were added per well followed by incubation for 4 h. Insoluble formazan crystals were dissolved by adding 100 µL of DMSO. Cells were then incubated for another 2 h. Absorbance was measured at 570 nm by a microplate reader. Untreated Hep-2C cells were taken as controls and DMSO as a negative. % cell viability = (abssample − absblank)/(abscontrol − absblank) × 100

[7] = Phosphomolybdenum-based total antioxidant capacity (TAC)
Experimental: In the presence of an antioxidant, the phosphomolybdate ion gets reduced and a green phosphate–molybdate complex is formed, which is analyzed spectrophotometrically.
The total antioxidant capacity was determined by using the phosphomolybdenum-based method. The method is based on the reduction of Mo (VI) to Mo (V), leading to the formation of a green-colored phosphate–molybdenum complex that gives absorption at 630 nm. In 96-well plates, 20 µL of the sample was added with 180 µL TAC reagents in it and incubated at 95 °C for 90 min in a water bath and cooled at room temperature. The results were calculated as µg AAE/mg.

[8] = Total reducing power (TRP) assay
Experimental: A TRP assay was carried out to evaluate the reducing potential of synthetic compounds. The method implicates reductones. These reductones are species with antioxidant potential that is believed to be due to their proton-donating capacity. […] The maximum value of reducing power was 104.7 ± 1.9 µg/AAE for SF5, followed by 103.18 ± 2.4 µg/AAE for SF7 and 84.57 ± 1.9 µg/AAE for SF12 (Figure 3 and Figure 4 (standard curve)).
The assay is based on the reduction of Fe^+3 to Fe^+2. The method described by Khan et al. was used with slight modifications. One hundred microliters of test samples (4 mg/mL DMSO) were taken in an Eppendrof tube and 200 μL of phosphate buffer (0.2 mol/L, pH 6.6) and 250 µL of 1% potassium ferricyanide (K3Fe CN)6) were added. This was allowed to incubate at 50 °C for 20 min. Later on, 200 μL of 10% trichloroacetic acid (TCA) was added to the mixture. The mixture was centrifuged at 3000 rpm at room temperature for 10 min. After centrifugation, 150 µL of supernatant were transferred to microplate with FeCl3 (50 μL, 0.1%) and the absorbance was taken at 630 nm. The results were calculated as µg AAE/mg.

| SMILES | IC50 (α-amylase) [1] [µg/mL] | % DPPH Scavenging Activity ([2]; 7.4 µg/mL) [%] | % DPPH Scavenging Activity ([2]; 22.22 µg/mL) [%] | % DPPH Scavenging Activity ([2]; 66.66 µg/mL) [%] | % DPPH Scavenging Activity ([2]; 200 µg/mL) [%] | IC50 (DPPH radical scavenging) [2] [µg/mL] | activity at 1 µM [3] [%] | activity at 10 µM [3] [%] | activity at 50 µM [3] [%] | activity at 100 µM [3] [%] | LD50 ± SEM (brine shrimp lethality) [4] [µg/mL] | viability at 24 h, 1 µM [5] [%] | viability at 24 h, 10 µM [5] [%] | viability at 24 h, 50 µM [5] [%] | viability at 24 h, 100 µM [5] [%] | IC50 at 24 h [5] [µM] | Total antioxidant capacity (TAC) [7] [µg/AAE] | Total reducing power (TRP) [8] | other results |
| --- | --- | --- | --- | --- | --- | --- | --- | --- | --- | --- | --- | --- | --- | --- | --- | --- | --- | --- | --- |
| Clc1cccc(NCN2CCCc3ccccc32)c1 [SF8, 3-Chloro-N-((3,4-dihydroquinolin-1(2H)-yl)methyl) aniline] | 27.39 ± 1.43 (≈ 100 µM) | 27.98 ± 0.24 | 50.17 ± 0.32 | 52.12 ± 0.36 | 62.35 ± 0.14 | 29.19 ± 0.25 (≈ 107 µM) | 39.4 ± 0.48 | 29.4 ± 0.44 | 24.1 ± 0.41 | 15 ± 0.33 | 123.4 ± 1.87 | 97 ± 1.04 | 83 ± 0.78 | 68 ± 0.79 | 52 ± 1 | 21.2 ± 0.33 |  |  | IC50 ([6]; 24 h): 20.2 ± 1.07 µM; IC50 ([6]; 48 h): 15.7 ± 1.08 µM; IC50 ([6]; 72 h): 11.9 ± 1.04 µM |
| Brc1ccc(NCN2CCCc3ccccc32)cc1 [SF9, 4-Bromo-N-((3,4-dihydroquinolin-1(2H)-yl)methyl) aniline] | 18.55 ± 0.89 (≈ 58.5 µM) | 7.64 ± 0.26 | 19.35 ± 0.11 | 50.28 ± 0.22 | 67.46 ± 0.14 | 50.76 ± 0.37 (≈ 160 µM) | 66.97 ± 0.61 | 58.54 ± 0.55 | 55.6 ± 0.51 | 49.07 ± 0.45 | 139 ± 0.87 | 98 ± 0.87 | 91 ± 0.91 | 84 ± 1.21 | 82 ± 0.96 | 14.2 ± 0.26 | 179.76 ± 1.6231 |  | % inhibition of α-amylase enzyme ([1]; 200 µg/mL): 89.93% and 93% |
| CC(=O)N(CN1CCCc2ccccc21)c1ccccc1 [SF10, N-((3,4-dihydroquinolin-1(2H)-yl)methyl)-N-phenylacetamide] |  | 23.45 ± 0.28 | 31.89 ± 0.21 | 40.77 ± 0.31 | 49.73 ± 0.19 | 47.81 ± 0.27 (≈ 171 µM) | 62.4 ± 0.65 | 58.5 ± 0.59 | 42.5 ± 0.54 | 33.84 ± 0.33 | 196.1 ± 1.12 | 100 ± 0.88 | 95 ± 0.93 | 80 ± 1.24 | 76 ± 1.2 | 24.8 ± 0.269 |  | no activity |  |
| COc1ccc(NCN2CCCc3ccccc32)cc1 [SF12, N-((3,4-dihydroquinolin-1(2H)-yl)methyl)-4-methoxyaniline] |  | 11.24 ± 0.11 | 31.80 ± 0.42 | 54.10 ± 0.17 | 64.20 ± 0.31 | 39.33 ± 0.28 (≈ 147 µM) | 49.7 ± 0.61 | 32.3 ± 0.59 | 26.5 ± 0.578 | 23.2 ± 0.55 | 128 ± 1.87 | 87 ± 0.82 | 84 ± 0.87 | 57 ± 0.89 | 41 ± 0.86 | 35.1 ± 0.5 | 191.19 ± 1.1231 | 84.57 ± 1.9 µg/AAE |  |
